One compound from ChEMBL document CHEMBL3621134, “Cyclic Peptides Incorporating Phosphotyrosine Mimetics as Potent and Specific Inhibitors of the Grb7 Breast Cancer Target” (J Med Chem, 2015) can be followed below.

This experiment concerns the target T1, Growth factor receptor-bound protein 10 (Homo sapiens, UniProt Q13322).
T1 sequence (Q13322 whole entry): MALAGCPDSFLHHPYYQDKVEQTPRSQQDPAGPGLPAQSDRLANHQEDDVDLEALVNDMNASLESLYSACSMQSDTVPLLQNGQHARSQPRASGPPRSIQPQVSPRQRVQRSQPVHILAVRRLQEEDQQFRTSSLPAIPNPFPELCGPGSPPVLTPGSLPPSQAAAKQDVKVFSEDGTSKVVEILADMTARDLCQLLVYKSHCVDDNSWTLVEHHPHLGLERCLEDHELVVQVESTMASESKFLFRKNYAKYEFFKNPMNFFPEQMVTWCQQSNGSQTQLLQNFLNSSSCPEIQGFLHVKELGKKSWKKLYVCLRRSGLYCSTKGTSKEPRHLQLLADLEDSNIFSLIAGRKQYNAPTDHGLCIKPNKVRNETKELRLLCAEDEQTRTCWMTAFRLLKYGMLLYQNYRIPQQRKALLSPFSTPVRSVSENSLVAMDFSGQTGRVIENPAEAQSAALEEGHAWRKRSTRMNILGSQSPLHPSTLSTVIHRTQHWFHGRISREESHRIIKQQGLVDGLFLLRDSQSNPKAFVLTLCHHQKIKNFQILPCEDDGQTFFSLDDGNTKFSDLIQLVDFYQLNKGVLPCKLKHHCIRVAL
Briefly: Binding affinity to GST-tagged Grb10-SH2 domain (471 to 594 amino acid residues) (unknown origin) expressed in Escherichia coli BL21 (DE3) using 20 mM Tris/1 mM NaPO4 buffer by SPR analysis. In general terms: In SPR one partner is held on a chip, and binding of the other changes the refractive index at the surface.

Take `C[C@@H](O)[C@@H]1NC(=O)[C@H](CC(N)=O)NC(=O)[C@H](CC(=O)O)NC(=O)[C@H](Cc2ccc(O)cc2)NC(=O)CNC(=O)[C@H](CCC(=O)O)NC(=O)[C@H](Cc2ccccc2)NC(=O)[C@H](Cc2c[nH]c3ccccc23)NC(=O)CSC[C@@H](C(N)=O)NC(=O)[C@@H]2CCCN2C(=O)[C@H](Cc2ccccc2)NC1=O`: the Kd entry is on record as “Not Active”.
